Reference: publication PMC8278649 (SLAS discovery : advancing life sciences R & D, 2020)

Key:
SCTR (secretin receptor) = SCTR (secretin receptor) (Homo sapiens, UniProt P47872); experiment: cAMP accumulation assay, agonist mode; assay type: cell-based; conditions: CHO-K1, read-out: Emax in cAMP accumulation assays
SCTR-SmBiT = SCTR-SmBiT (UniProt P47872 23-440); experiment: cell-based or functional assay
Sequence of SCTR-SmBiT (P47872 23-440): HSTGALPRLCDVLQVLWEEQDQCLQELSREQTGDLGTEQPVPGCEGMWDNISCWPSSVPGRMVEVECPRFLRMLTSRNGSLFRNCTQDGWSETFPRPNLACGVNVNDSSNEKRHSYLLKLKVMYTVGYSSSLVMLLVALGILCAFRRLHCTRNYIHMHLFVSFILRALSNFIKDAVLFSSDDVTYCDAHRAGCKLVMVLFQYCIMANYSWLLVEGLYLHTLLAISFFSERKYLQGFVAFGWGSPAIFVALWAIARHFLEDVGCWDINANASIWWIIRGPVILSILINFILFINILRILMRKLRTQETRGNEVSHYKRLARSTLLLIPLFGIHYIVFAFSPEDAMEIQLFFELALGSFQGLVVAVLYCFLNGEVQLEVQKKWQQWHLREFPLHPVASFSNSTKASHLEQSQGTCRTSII

Sequence of SCTR (secretin receptor) (P47872 23-440): as above

Row | Molecule | Emax (SCTR (secretin receptor)) [%] | β-arrestin-2 recruitment (NanoBiT, SCTR-SmBiT with LgBiT-ARRB2), EC50 (SCTR-SmBiT) [nM]
1 | CC(C)C[C@H](NC(=O)CNC(=O)[C@H](CCC(N)=O)NC(=O)[C@H](CC(C)C)NC(=O)[C@H](CC(C)C)NC(=O)[C@H](CCCNC(=N)N)NC(=O)[C@H](CCC(N)=O)NC(=O)[C@H](CC(C)C)NC(=O)[C@H](CCCNC(=N)N)NC(=O)[C@H](C)NC(=O)CNC(=O)[C@H](CCC(=O)O)NC(=O)[C@H](CCCNC(=N)N)NC(=O)[C@H](CC(C)C)NC(=O)[C@H](CCCNC(=N)N)NC(=O)[C@H](CO)NC(=O)[C@H](CC(C)C)NC(=O)[C@H](CCC(=O)O)NC(=O)[C@H](CO)NC(=O)[C@@H](NC(=O)[C@H](Cc1ccccc1)NC(=O)[C@@H](NC(=O)CNC(=O)[C@@H](N)CC(=O)O)[C@@H](C)O)[C@@H](C)O)C(=O)N[C@H](C(N)=O)C(C)C [Sec(3–27)] | 30 | 
2 | HSDGTFTSELSRLREGARLQRLL [Sec(1–23)] |  | 1300
